Values quoted from earlier work as cited in patent publication US7655212B2, “Production of silver sulfate grains using a fluorinated additive” (Eastman Kodak Company, priority 2008, dated 2010).

Assays:
Conditions in all cases: in polymethylmethacrylate bone cement at 0.5% concentration
Escherichia coli = tested on: Escherichia coli
Staphylococcus aureus = tested on: Staphylococcus aureus
Pseudomonas aeruginosa = tested on: Pseudomonas aeruginosa

[Cl][Ag] [Silver chloride]
significantly inhibit: inhibition of bacterial growth of Escherichia coli (Escherichia coli) | inhibition of bacterial growth of Staphylococcus aureus (Staphylococcus aureus) | inhibition of bacterial growth of Pseudomonas aeruginosa (Pseudomonas aeruginosa)

O=S(=O)([O-])[O-].[Ag+].[Ag+] [silver sulfate]
significantly inhibit: inhibition of bacterial growth of Escherichia coli (Escherichia coli) | inhibition of bacterial growth of Staphylococcus aureus (Staphylococcus aureus) | inhibition of bacterial growth of Pseudomonas aeruginosa (Pseudomonas aeruginosa)

silver oxide
significantly inhibit: inhibition of bacterial growth of Escherichia coli (Escherichia coli) | inhibition of bacterial growth of Staphylococcus aureus (Staphylococcus aureus) | inhibition of bacterial growth of Pseudomonas aeruginosa (Pseudomonas aeruginosa)
